assay: Human HepG2 cell viability assay in 384 well format; assay type: toxicity, cell-based; set-up: dose 125 nL, time 70.5 hour; concentration not given beside the values; details: HepG2 cells, read-out: Inhibition

Structure (SMILES)	cytotoxicity at 70.5 h [%]
CN(C)c1cc(CNC(=O)Nc2ccc(S(C)(=O)=O)nc2)ccn1	-15.4
Cc1cc(C)c2nc(CN(C)C(C)c3ccncn3)cc(O)c2c1 (stereo not drawn)	-4.38
CC(C)N1CCOC(CC(=O)N2CCCN(c3ccc(F)cc3)CC2)C1 (stereo not drawn)	-3.4
COc1ccccc1C(=O)Nc1cc(CC(C)C)nn1C	-3.94
CC(C)(C)C(=O)N1CCCC1c1nccnc1Cl (stereo not drawn)	-8.54
CC(NCc1cnn(C)c1)c1noc(-c2ccc(Cl)cc2)n1 (stereo not drawn)	-5.15
O=C(CSCC1CC1)N1CCCC(c2nccn2Cc2ccncc2)C1 (stereo not drawn)	-9.73
CC(C)Sc1ncccc1C(=O)NCc1ccc(CS(C)(=O)=O)cc1	6.05
CN(C)c1ncccc1CNC(=O)c1csc(Br)c1	13.3
CN(C)Cc1ccnc(C2CCCN2Cc2ccc3ncccc3c2)n1 (stereo not drawn)	1.4
Cn1nccc1-c1ccc2nc(C3CCN(CCO)CC3)nn2c1	-2.61
Cc1nc(C(C)(C)NC(=O)Nc2ccc(C#N)cc2)no1	-4.52
CC(C)NS(=O)(=O)c1cc(C(=O)O)cc(-n2cc3c(n2)CCC3)c1	-0.272
O=C(c1cccnc1N1CCOC(c2ccc(Cl)cc2)C1)N1CCCC1 (stereo not drawn)	-5.24
CC(Nc1nccc(CCC(F)(F)F)n1)c1nc(-c2ccncc2)no1 (stereo not drawn)	-13.3
CCc1[nH]c2c(CNC(=O)C3CCC(=O)NC3)cc(C)cc2c1C (stereo not drawn)	-9.39
CCn1nc(C)c2nc(C)nc(NCCc3ccc(C)cc3)c21	34.1
O=C(NS(=O)(=O)c1cc(Cl)ccc1Cl)c1cccc2c1OCCO2	58.5
COCCN(C)C[C@H]1C[C@H](CO)CN(C(=O)c2ccn(C)c(=O)c2)C1	-9.68
CCn1ccnc1CN1CCC(=O)N(CC2CC2)C(C(C)C)C1 (stereo not drawn)	31.2
O=c1c2sccc2nc2n1CCN(Cc1ccsc1)CC2	17.3
O=C(Nc1cn[nH]c1)N(CCO)C1CCc2ccccc21 (stereo not drawn)	-13.9
COc1cc(NC(=O)c2ccc(C)c(F)c2)c(C(=O)N(C)C)cc1OC	-12.5

Structure (SMILES)	cytotoxicity at 70.5 h [%]
COc1ccc(CN2CCO[C@H]3CN(C4CCC4)CC[C@H]3C2=O)cc1	-0.486
Cc1ccc(-c2cc(CNC(=O)N3CCCN(C)CC3)on2)cc1	2.1
O=C(c1ccc[nH]1)N1C[C@H](OCc2cccnc2)[C@H]2COC[C@H]21	5.01
COCCC1(CO)CCCN(Cc2ccc(C(F)(F)F)nc2)C1 (stereo not drawn)	-1.12
CCN(Cc1noc(C)n1)C(=O)C(c1ccccc1C)N(C)C (stereo not drawn)	-6.06
CCn1c(CN2CCCC2)nnc1C1CCN(Cc2cc(C)no2)CC1	-6.8
O=C(c1ccc(F)c(F)c1)N1CCCC(Nc2ccc(F)cc2)C1 (stereo not drawn)	-5.1
O=C(O)c1cnc(-c2cccc3c2CCNC3)c(Cl)c1	-11.1
NC(=O)COc1cccc(Cn2cccn2)c1	-3.94
c1ccc(-n2ncc(CN3CCCC3Cn3cccn3)n2)cc1 (stereo not drawn)	-15.5
CCC1CCCCN1Cc1nc2c(cnn2C)c(=O)[nH]1 (stereo not drawn)	-0.935
Cc1nc(C(C)C)sc1C(=O)N1CCN(C2CN3CCC2CC3)CC1 (stereo not drawn)	-6.54
CCOC(=O)c1sc2ccsc2c1CNC(=O)CCOC	16.3
CNCc1cc(F)ccc1Oc1ccc(Cl)cc1	2.13
CC(C)(CNc1ccc(S(=O)(=O)C(F)F)cc1)N1CCOCC1	18.8
CCN1C[C@H]2[C@@H](C1)N(c1ncc(F)cn1)CC[C@H]2OC	14.2
CN(C)CCNC(=O)C1Cc2nc(-c3ccsc3)sc2N1CC1CC1 (stereo not drawn)	-4.49
Cc1ccc2nc(CN(C)Cc3n[nH]c4c3CCCCC4)[nH]c2c1C	-3.25
CC1=C[C@@H](CNS(C)(=O)=O)[C@H](C(C)C)C[C@H]1CC(=O)NCCN(C)C	1.17
CCc1cc(O)nc(C2CCCN(Cc3ccncc3)C2)n1 (stereo not drawn)	-1.03
CN(C)c1ccc(C(=O)Nc2cn[nH]c2)cc1	-2.5
Cc1cccc(CN2CCc3ncnc(N4CCOCC4)c3CC2)n1	-1.5
CCCn1nccc1C(=O)Nc1ncc(C)s1	-11.3

Structure (SMILES)	cytotoxicity at 70.5 h [%]
N#Cc1ccccc1N1CCCN(C(=O)CCc2ccco2)CC1	-5.97
Cc1ccc(N2C[C@@H]3CN(Cc4csc(C)n4)CCO[C@@H]3C2)nn1	-2.48
Cc1nn(C)c(C)c1CN(C)c1nc(C2CC2)nc2c(C)nn(C)c12	29.7
Cc1nc(C#N)c(N2CCC(c3nc(-c4ccccc4)no3)CC2)o1	-4.24
COC(=O)c1ccc(CCn2cnc(C#N)n2)cc1	13.2
CCN(CC)C(=O)[C@@H]1C[C@H](NC(=O)c2ccn(C(C)(C)C)c2)CN1C	-1.68
NC(=O)N1CCCN(CCCSCc2ccccc2)CC1	-17.6
COc1ccc(C)cc1CN1CCCC1Cn1nc(C)nc1C (stereo not drawn)	-9.81
CN(C)CCN1C(=O)CCC12CCCN(C(=O)C1CC=CC1)CC2 (stereo not drawn)	-1.28
NC(=O)CCN1CCc2onc(-c3ccccc3F)c2C1	-11.6
Cn1ccnc1CN1C[C@H](N2CCOCC2)[C@@H]2OCCC[C@@H]21	-3.14
COCC1CN(C(=O)Cc2ccccn2)Cc2cn(CC3CC3)nc21 (stereo not drawn)	-14.6
Cc1ccccc1CN1CCC2(CC1)CN(S(=O)(=O)c1ccccc1)C2	-6.98
O=C(CCN1CCCC(CO)(CC2CC2)C1)NC1CCCCC1 (stereo not drawn)	-25.2
Cc1cccnc1NC(=O)c1ccc(F)c(S(=O)(=O)N2CCC2)c1	-19.3
NCc1ccc(Oc2ccc(F)c(F)c2)cc1C(F)(F)F	-0.173
FC(F)(F)c1ccccc1CN1CCOC[C@H](Oc2cccnc2)C1	1.03
CC(C)c1nc(CN(C)C(=O)C(O)c2ccc(Cl)cc2)cs1 (stereo not drawn)	-0.849
CC(C)CN1CCCC2(CCN(c3ccc(C#N)cn3)C2)C1 (stereo not drawn)	2.01
Cc1noc(C)c1CN1CC2(CCCCN2C)CC1=O (stereo not drawn)	17.1
Cc1cc(CN(C)Cc2ncc(-c3cccs3)o2)no1	0.203
NC(=O)c1csc(N2C[C@@H](CN3CCC(O)CC3)[C@@H](CO)C2)n1	-6.31
c1ccc(CN2CCCC(CNc3ncnc4c3CCNCC4)C2)cc1 (stereo not drawn)	-6.09

Structure (SMILES)	cytotoxicity at 70.5 h [%]
NC(=O)CCn1cc(CNCCCc2ccncc2)c2ccccc21	-3.77
O=C(N[C@H]1CN(Cc2ccsc2)[C@@H]2CCCO[C@H]12)C1CC1	-11.3
CCN1CCNC(=O)C12CCN(C(=O)Cc1ccccn1)CC2	-1.44
Cc1ccc2c(c1)CCC2NC(=O)N1CCC(C(N)=O)CC1 (stereo not drawn)	-6.61
CC(C)N(C)Cc1ccccc1CNc1ccc2nncn2n1	-12
COCc1noc(CN2CCC3(CC2)[C@H](O)C[C@@H]3OC)n1	-5.38
Cc1oc(-c2cccc(F)c2F)nc1CN(CCO)C(C)C	-8.53
Cc1cc(C(=O)N(C)Cc2ccoc2)c(NC(=O)C(C)(C)C)s1	-3.77
O=C1CC[C@H]2[C@H](CCN2Cc2ccccn2)N1CC1CCOCC1	-6.68
Cn1ccnc1-c1nc(NC2CCCC2)ncc1-c1cccc(F)c1	0.205
c1ccc(-c2nc(CN3CCCC3Cn3cncn3)cs2)cc1 (stereo not drawn)	14.3
CCC(C(=O)NCC1CCN(c2ccncc2)CC1)N(C)C (stereo not drawn)	-7.96
COc1ccccc1NC(=O)N(CCO)Cc1ccsc1	5.1
CCCc1nccn1-c1ccc(C(C)O)cc1 (stereo not drawn)	-5.9
CS(=O)(=O)N1C[C@@H](F)[C@@H](OCc2nc3ccccc3o2)C1	14.3
Cc1ccc(CN2CCOC3(COCCN(C(C)C)C3)C2)s1 (stereo not drawn)	18.3
CC(=O)N(Cc1ccc(NCc2cnn(C(C)(C)C)c2)cc1)C(C)C	-3.55
CCOCC(=O)Nc1ccc(N2CCSCC2)cc1C	-7.62
COc1ccc(N2CCN(C(=O)NC(C)c3nncn3C)CC2)cc1 (stereo not drawn)	-3.61
CN1CCCC2(CCN(c3cccc(C(F)(F)F)n3)C2)C1=O (stereo not drawn)	-6.46
Cc1ccc2c(n1)N(CCn1cccn1)CCN(S(C)(=O)=O)C2	27.2
Cc1csc(CNC(=O)NC2CCN(c3ncccn3)CC2)n1	-11.3
Cc1ccccc1CSc1nc(N)cc(N2CCOC(C(N)=O)C2)n1 (stereo not drawn)	1.56

Structure (SMILES)	cytotoxicity at 70.5 h [%]
Cc1cc(NC(C)c2n[nH]c(C)n2)n2nc(C)c(C)c2n1 (stereo not drawn)	20
c1ccc(-c2nc(CNC3CCc4ncnn4C3)no2)cc1 (stereo not drawn)	-3.91
CC(=O)N1CCCC(c2ncncc2-c2ccncc2)C1 (stereo not drawn)	-7.71
Cc1nn(C)c2c(=O)n(CC(=O)Nc3cc(Cl)cc(Cl)c3)nnc12	-0.624
CCOc1ccc(Cl)cc1C(C(=O)O)N1CCOCC1 (stereo not drawn)	-4.12
Cc1oc(-c2ccsc2)nc1CN1CC[C@@H]2CCCC[C@H]2C1	13.8
O=C1CCCCN1Cc1cccc(NC(=O)N2CCSCC2)c1	-6.83
CNc1ccc(CC2CCCN(Cc3c[nH]cn3)C2)nn1 (stereo not drawn)	-3.24
Cc1n[nH]cc1CNC(C(=O)N1CCOCC1)c1ccccc1 (stereo not drawn)	15.2
COc1ccc(CC(=O)N2CC[C@@H]3CN(C)S(=O)(=O)[C@@H]3CC2)cc1	-5.74
CCn1ccnc1CN1CCCN(C(=O)Cc2ccccc2C)CC1	-1.08
CCc1ccc(C(=O)N(CC)Cc2ccoc2)cc1S(C)(=O)=O	-13.3
c1ccc(-c2nnc(CNCCn3cccn3)o2)cc1	-1.94
CCc1cccc(OCCCN(C)C(=O)CN2CCNC2=O)c1	0.78
CCCC(=O)NCc1cccc(C(=O)OC)c1	-9.06
COCCNC(=O)[C@H]1C[C@@H]2CCN(Cc3ccncc3)C[C@H]2O1	-9.09
CC(C)N(C)[C@@H]1CCN(C(=O)c2ccc[nH]2)[C@H]1Cc1cnn(C)c1	-8.9
O=C(c1ccon1)N1CCCCC1c1nc2cc(F)ccc2[nH]1 (stereo not drawn)	-5.01
CC(=O)Nc1ccc(-c2cn(CCn3c(C)cc(C)nc3=O)nn2)cc1	-6.08
COc1ccc(C2CCCN2C(=O)NCCn2ccnc2)cc1OC (stereo not drawn)	0.318
Cc1cc(C)nc(C2CCN(C3CCCCC3)C2)n1 (stereo not drawn)	-5.66

Source: ChEMBL document CHEMBL3507680, “University of Dundee, Gates Library screen for HepG2 cell viability”
